We go through 16 compounds from patent US20240124439A1, “Pyrido[2,3-D]Imidazole Derivatives and Their Use As Inhibitors of ITK for the Treatment of Skin Disease” (Pfizer Inc., priority 2020, published 2024).

By IC50 is commonly meant the concentration needed to halve the response being measured. High values mean weaker potency, low ones greater potency.

Experiment [1] concerns the target IL-2-Inducible T-Cell Kinase (ITK) (Homo sapiens (Human), UniProt Q08881). In words: ITK enzyme assay (IL-2-inducible T-cell kinase activity). The format is biochemical. The note with it: geometric mean of count n. On the procedure:
ITK activity was determined by measuring the effect of a test compound in an ITK enzyme assay.
1.0 M HEPES Buffer pH 7.5 solution was prepared as follows: 238.3 g HEPES free acid (Sigma) and 800 mL of water were combined, and the mixture was stirred until complete dissolution. The pH was adjusted to 7.5 via titration with 5N NaOH and the volume adjusted to 1000 mL. The solution was filtered and sterilized.
ITK assay buffer was prepared as follows: 50 mL of HPLC-grade water was treated with 2 mL of 1.0 M HEPES Buffer, 500 μL of 2% Gelatin (Sigma), 1.0 mL of aqueous MgCl2 solution (1.0 M), and 1.0 mL of aqueous glutathione solution (0.5 M), and the solution was mixed. The solution was brought to 99 mL in a graduated cylinder by addition of water and sterilized through a 0.2 μm filter. 0.1 mL of Brij-35™ Surfact-Amps™ Detergent Solution (10% w/v aqueous solution, ThermoFisher) and 1.0 mL of ATP (Teknova,100 mM) were added and the solution was mixed.
Preparation of 1.33× ITK enzyme solution was as follows: 49.99 mL of ITK assay buffer was treated with 4.1 μL of ITK enzyme (ITK FL (N-Flag and C-His tagged, […]) Lake Pharma, 0.25 mg/ml in a buffer containing 25 mM Tris pH 7.8, 150 mM NaCl, 10% glycerol and 2 mM TCEP) and the mixture was gently agitated. The resulting solution was stored on ice. 30 Minutes prior to use, the enzyme solution was removed from ice and equilibrated to RT by incubation in a RT water bath.
Preparation of 4× ITK substrate solution was as follows: 50 mL of ITK assay buffer was treated with 100 μL of BTK peptide (China Peptide Company, 2 mM stock solution in DMSO). The tube was capped, mixed by gently inverting the tube, and then stored on ice. 30 Minutes prior to use, the substrate solution was removed from ice and equilibrated to RT by incubation in a RT water bath.
At the time of assay, 7.5 μL of the 1.33× ITK enzyme solution was added to plate wells containing 0.1 μL of varying concentrations of test compound in DMSO. The plate was incubated 30 min at RT. The plate wells were each treated with 2.5 uL of the 4× ITK substrate solution and the plate was sealed (TopSeal™, Perkin Elmer). The plate was spun at 1000 rpm for 30 sec and then incubated for 60 min at RT. The seal was removed, and each well was treated with 10 μL of Stop/Detect Buffer (20 mM HEPES pH 7.5, 0.01% gelatin, 1 nM LANCE PT66 (Perkin Elmer), 16.5 μg/ml Surelight APC (Perkin Elmer), 10 mM EDTA, 250 mM NaCl). The plate was again covered and was spun at 1000 rpm for […]. The plate was allowed to incubate overnight at RT and in a closed carrier to reduce dehydration. The seal was removed, and the fluorescence was read with a plate reader with an excitation wavelength of […]. The concentrations and resulting effect values for the tested compound were plotted and the concentration of compound required for 50% effect (IC50) was determined with the four-parameter logistic dose response equation.

Experiment [2] relates to activated CD4+ human T-cells (IL-2). In words: IL-2 inhibition in supernatants from activated CD4+ human T-cells (cisbio HTRF). The settings on record: T-cell; CD3/CD28-activated CD4+ human T cells, ImmunoCult stimulation 20 to 24 hrs; geometric mean of count n. The format is cell-based. On the procedure: IL-2 inhibition activity in supernatants from activated CD4+ human T-cells was determined by measuring the effect of a test compound on the activity using the cisbio HTRF™ technology.
Human CD4+ T cells were activated with CD3/CD28 for 3 days and expanded for an additional 4-6 days (7 to 9 days total). On day 0, frozen CD4+ T cells were thawed, treated with CD3/CD28 Dynabeads, and incubated at 37° C./5% CO2. On day 3, the beads were removed, and the cells were diluted to 5×10^5 cells/cm^2, placed in G-Rex10 flask, and incubated at 37° C./5% CO2. On day 7 to day 9 the cells were removed from the G-Rex flasks, counted and diluted back to 1×10^6 cells/ml in standard tissue culture flask.
The expanded CD4+ T-cells were centrifuged at 300×g for 10 minutes and resuspended to 0.5 million cells per ml (30,000 cells/well). 60 μl of CD4+ T cells were added per well to a 384 well plate containing 0.1 μL of varying concentrations of test compound in DMSO. The plates were incubated for 15 min at 37° C./5% CO2. 20 μl of diluted ImmunoCult™ (STEMCELL Technologies, 1:12.5 in T cell assay media) were added to all wells of the plate (1:50 final assay concentration). The plates were incubated for an additional 20 to 24 hrs at 37° C./5% CO2. The plates were centrifuged at 300×g for 10 minutes. 16 μL of supernatant was removed and combined with 4 μl of IL-2 HTRF Abs. (cisbio kit). Plates were incubated for 3 hours at RT and read with an EnVision plate reader at 665 nm and 615 nm wavelengths. The concentrations and resulting effect values for the tested compound were plotted and the concentration of compound required for 50% effect (IC50) was determined with the four-parameter logistic dose response equation.
A general note: TR-FRET usually uses a lanthanide donor and a delayed reading to cut background.

IL-2-Inducible T-Cell Kinase (ITK), sequence (Q08881 whole entry): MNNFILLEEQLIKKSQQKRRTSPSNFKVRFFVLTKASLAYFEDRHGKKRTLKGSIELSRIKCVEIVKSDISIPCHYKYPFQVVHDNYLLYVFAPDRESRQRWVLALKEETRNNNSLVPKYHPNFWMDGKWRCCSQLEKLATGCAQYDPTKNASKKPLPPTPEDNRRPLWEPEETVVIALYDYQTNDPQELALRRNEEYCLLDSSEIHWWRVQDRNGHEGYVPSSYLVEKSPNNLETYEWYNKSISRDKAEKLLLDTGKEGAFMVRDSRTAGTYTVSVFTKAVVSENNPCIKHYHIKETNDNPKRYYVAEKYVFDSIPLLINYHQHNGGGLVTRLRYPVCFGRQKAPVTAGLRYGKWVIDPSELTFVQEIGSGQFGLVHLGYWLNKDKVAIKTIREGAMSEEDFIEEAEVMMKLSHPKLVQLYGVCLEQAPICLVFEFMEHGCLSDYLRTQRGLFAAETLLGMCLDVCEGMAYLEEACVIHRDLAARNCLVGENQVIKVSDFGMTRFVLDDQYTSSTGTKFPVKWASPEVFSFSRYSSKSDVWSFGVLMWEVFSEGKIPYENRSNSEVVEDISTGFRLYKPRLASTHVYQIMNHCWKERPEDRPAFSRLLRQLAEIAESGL

As for `CN(C(=O)C1CCC1)c1cnc2[nH]c(-c3n[nH]c4c3CCC(C)(C)C4)nc2c1` [Example 105, N-(2-(6,6-Dimethyl-4,5,6,7-tetrahydro-1H-indazol-3-yl)-3H-imidazo[4,5-b]pyridin-6-yl)-N-methylcyclobutanecarboxamide], the concentration for half-maximal inhibition (IC50) in experiment [1] was 0.123 µM; in experiment [2], 0.732 µM.

For `CC[C@@H](C)C(=O)N(C)c1cnc2nc(-c3n[nH]c4c3C[C@@H]3C[C@]3(C)C4)[nH]c2c1` [Example 87, (R)-N,2-Dimethyl-N-(2-((4aS,5aR)-5a-methyl-1,4,4a,5,5a,6-hexahydrocyclopropa[f]indazol-3-yl)-1H-imidazo[4,5-b]pyridin-6-yl)butanamide], the IC50 in experiment [1] worked out at 0.026 µM; in experiment [2], 0.246 µM.

With `CN(C(=O)C1(C)CCC1)c1cnc2[nH]c(-c3n[nH]c4c3CCC(C)(C)C4)nc2c1` [Example 104, N-(2-(6,6-Dimethyl-4,5,6,7-tetrahydro-1H-indazol-3-yl)-3H-imidazo[4,5-b]pyridin-6-yl)-N,1-dimethylcyclobutane-1-carboxamide], the 50% inhibitory concentration (IC50) in experiment [1] worked out at 0.101 µM; in experiment [2], 0.517 µM.

As to `C[C@@H](C(=O)N(CCO)c1cnc2[nH]c(-c3n[nH]c4c3C[C@@H]3C[C@]3(C)C4)nc2c1)N1CCOCC1` [Example 15, (S)-N-(2-Hydroxyethyl)-N-(2-((4aS,5aR)-5a-methyl-1,4,4a,5,5a,6-hexahydrocyclopropa[f]indazol-3-yl)-3H-imidazo[4,5-b]pyridin-6-yl)-2-morpholinopropanamide], the IC50 was determined as 0.083 µM in experiment [1] and 1.23 µM in experiment [2].

As for `CN(C(=O)CC1CCOCC1)c1cnc2[nH]c(-c3n[nH]c4c3CCC(C)(C)C4)nc2c1` [Example 114, N-(2-(6,6-Dimethyl-4,5,6,7-tetrahydro-1H-indazol-3-yl)-3H-imidazo[4,5-b]pyridin-6-yl)-N-methyl-2-(tetrahydro-2H-pyran-4-yl)acetamide], the figures for the IC50 in experiment [1] and in experiment [2] were 0.156 µM and 1.51 µM, respectively.

As for `CN(C(=O)[C@@H]1C[C@@H]2[C@H](C1)C2(F)F)c1cnc2nc(-c3n[nH]c4c3C[C@@H]3C[C@]3(C)C4)[nH]c2c1` [Example 67, (1R,3s,5S)-6,6-Difluoro-N-methyl-N-(2-((4aS,5aR)-5a-methyl-1,4,4a,5,5a,6-hexahydrocyclopropa[f]indazol-3-yl)-1H-imidazo[4,5-b]pyridin-6-yl)bicyclo[3.1.0]hexane-3-carboxamide], the IC50 came to 0.012 µM in experiment [1] and 0.059 µM in experiment [2].

Regarding `CN(C(=O)C1(C2CCC2)CCC1)c1cnc2nc(-c3n[nH]c4c3C[C@@H]3C[C@]3(C)C4)[nH]c2c1` [Example 63, N-Methyl-N-(2-((4aS,5aR)-5a-methyl-1,4,4a,5,5a,6-hexahydrocyclopropa[f]indazol-3-yl)-1H-imidazo[4,5-b]pyridin-6-yl)-[1,1′-bi(cyclobutane)]-1-carboxamide], the figures for the IC50 in experiment [1] and in experiment [2] were 0.04 µM and 0.338 µM, respectively.

Take `CN(C(=O)C1CCOCC1)c1cnc2[nH]c(-c3n[nH]c4c3CCC(C)(C)C4)nc2c1` [Example 90, N-(2-(6,6-Dimethyl-4,5,6,7-tetrahydro-1H-indazol-3-yl)-3H-imidazo[4,5-b]pyridin-6-yl)-N-methyltetrahydro-2H-pyran-4-carboxamide]: the IC50 in experiment [1] worked out at 0.545 µM; in experiment [2], 0.892 µM.

In the case of `CN(C(=O)Cn1cccn1)c1cnc2nc(-c3n[nH]c4c3C[C@@H]3C[C@]3(C)C4)[nH]c2c1` [Example 6, N-Methyl-N-(2-((4aS,5aR)-5a-methyl-1,4,4a,5,5a,6-hexahydrocyclopropa[f]indazol-3-yl)-1H-imidazo[4,5-b]pyridin-6-yl)-2-(1H-pyrazol-1-yl)acetamide], the concentration for half-maximal inhibition (IC50) came out at 0.026 µM in experiment [1] and 0.343 µM in experiment [2].

For the compound `CN(C(=O)CN1CCCCC1=O)c1cnc2nc(-c3n[nH]c4c3C[C@@H]3C[C@]3(C)C4)[nH]c2c1` [Example 79, N-Methyl-N-(2-((4aS,5aR)-5a-methyl-1,4,4a,5,5a,6-hexahydrocyclopropa[f]indazol-3-yl)-1H-imidazo[4,5-b]pyridin-6-yl)-2-(2-oxopiperidin-1-yl)acetamide], the IC50 in experiment [1] turned out to be 0.043 µM; in experiment [2], 1.59 µM.

Regarding `C[C@H](C(=O)N(C)c1cnc2[nH]c(-c3n[nH]c4c3C[C@@H]3C[C@]3(C)C4)nc2c1)N1C[C@H]2CC[C@@H]1CO2` [Example 115], the IC50 in experiment [1] was 0.142 µM; in experiment [2] it was 0.415 µM.

Regarding `CCC1(C(=O)N(C)c2cnc3[nH]c(-c4n[nH]c5c4CCC(C)(C)C5)nc3c2)CCOCC1` [Example 94, N-(2-(6,6-Dimethyl-4,5,6,7-tetrahydro-1H-indazol-3-yl)-3H-imidazo[4,5-b]pyridin-6-yl)-4-ethyl-N-methyltetrahydro-2H-pyran-4-carboxamide], the IC50 in experiment [1] was found to be 0.307 µM; in experiment [2] it was 3.17 µM.

Turning to `CN(C(=O)C1CCC(F)(F)CC1)c1cnc2[nH]c(-c3n[nH]c4c3CCC(C)(C)C4)nc2c1` [Example 110, N-(2-(6,6-Dimethyl-4,5,6,7-tetrahydro-1H-indazol-3-yl)-3H-imidazo[4,5-b]pyridin-6-yl)-4,4-difluoro-N-methylcyclohexane-1-carboxamide], the half-maximal inhibitory concentration (IC50) in experiment [1] was found to be 0.554 µM; in experiment [2], 1.59 µM.

As for `CN(C(=O)CN1CCOCC1=O)c1cnc2nc(-c3n[nH]c4c3C[C@@H]3C[C@]3(C)C4)[nH]c2c1` [Example 56, N-Methyl-N-(2-((4aS,5aR)-5a-methyl-1,4,4a,5,5a,6-hexahydrocyclopropa[f]indazol-3-yl)-1H-imidazo[4,5-b]pyridin-6-yl)-2-(3-oxomorpholino)acetamide], the IC50 came out at 0.054 µM in experiment [1] and 0.611 µM in experiment [2].

In the case of `CCC(C)(C)C(=O)N(C)c1cnc2nc(-c3n[nH]c4c3C[C@@H]3C[C@]3(C)C4)[nH]c2c1` [Example 88, N,2,2-Trimethyl-N-(2-((4aS,5aR)-5a-methyl-1,4,4a,5,5a,6-hexahydrocyclopropa[f]indazol-3-yl)-1H-imidazo[4,5-b]pyridin-6-yl)butanamide], the IC50 in experiment [1] stood at 0.118 µM; in experiment [2], 0.808 µM.

As to `CN(C(=O)[C@@H]1CCCCO1)c1cnc2nc(-c3n[nH]c4c3C[C@@H]3C[C@]3(C)C4)[nH]c2c1` [Example 64, (S)-N-Methyl-N-(2-((4aS,5aR)-5a-methyl-1,4,4a,5,5a,6-hexahydrocyclopropa[f]indazol-3-yl)-1H-imidazo[4,5-b]pyridin-6-yl)tetrahydro-2H-pyran-2-carboxamide], the half-maximal inhibitory concentration (IC50) is 0.103 µM in experiment [1] and 0.208 µM in experiment [2].
